Results reported in ChEMBL document CHEMBL1201862, “PubChem BioAssay data set” (2004).
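A five-concentration, 48-hour dose response in 96-well plates underlies each endpoint, interpolated linearly between surrounding concentrations. GI50: concentration for 50% inhibition of growth.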 Active and inactive are the calls of the source. Rule as the data show it: active = GI50 up to about 1.1 µM and inactive = higher.

Key:
Assay in all cases: DTP human tumour cell line panel, 48 h
HOP-18 = test system: HOP-18
DMS-114 = test system: DMS-114
LXFL 529 = test system: LXFL 529
DLD-1 = test system: DLD-1
M19-MEL = test system: M19-MEL
XF498 = test system: XF498
KM-20L2 = test system: KM-20L2
RXF 631 = test system: RXF 631
SNB-78 = test system: SNB-78

Measured: GI50

COC(=O)[C@H](Cc1ccccc1)NC(=O)/C(=C/C(C)C)NC(=O)[C@H](CCSC)NC=O
inactive: HOP-18 > 100 µM | DMS-114 > 100 µM | LXFL 529 > 100 µM | DLD-1 > 100 µM | M19-MEL > 100 µM | XF498 > 100 µM | KM-20L2 > 100 µM

CN1C/C(=C\c2ccc(C(=O)O)cc2)C(=O)/C(=C/c2ccc(C(=O)O)cc2)C1
inactive: HOP-18 > 100 µM | DMS-114 > 100 µM | LXFL 529 > 100 µM | DLD-1 > 100 µM | RXF 631 > 100 µM | SNB-78 > 100 µM | M19-MEL > 100 µM | XF498 > 100 µM | KM-20L2 > 100 µM

O=C(O)C(Cl)(Cl)Cl
inactive: HOP-18 80 µM | DMS-114 > 100 µM | LXFL 529 > 100 µM | DLD-1 > 100 µM | SNB-78 > 100 µM | M19-MEL > 100 µM | XF498 > 100 µM | KM-20L2 > 100 µM

C/N=c1\ss/c(=N\C(=S)N(C)C)n1-c1ccccc1
inactive: HOP-18 > 100 µM | DMS-114 > 67.8 µM | LXFL 529 > 100 µM | DLD-1 > 100 µM | SNB-78 46 µM | M19-MEL > 100 µM | KM-20L2 > 100 µM

O=c1cc2ccccc2nn1Cc1ccccc1Cl
inactive: HOP-18 > 100 µM | DMS-114 67.6 µM | DLD-1 > 100 µM | SNB-78 > 100 µM | M19-MEL > 100 µM | XF498 80.2 µM | KM-20L2 > 100 µM

S=C(N/N=C/c1ccccc1)NC12CC3CC(CC(C3)C1)C2
inactive: LXFL 529 64.7 µM | RXF 631 44.5 µM | XF498 35.8 µM | KM-20L2 7.08 µM

COC(=O)c1ccc(/N=N/N(C)COc2ccc(Br)cc2)cc1
inactive: HOP-18 > 100 µM | DMS-114 55.7 µM | DLD-1 > 54.6 µM | SNB-78 > 100 µM | M19-MEL > 100 µM | XF498 > 100 µM | KM-20L2 > 81.1 µM

O=C(Cc1ccccc1)NN1C(=O)C(Cl)C1c1ccc(Cl)cc1 (stereo not given)
inactive: HOP-18 > 100 µM | DMS-114 > 100 µM | LXFL 529 > 100 µM | DLD-1 > 100 µM | SNB-78 > 100 µM | XF498 > 100 µM | KM-20L2 > 100 µM

CC(=O)OCCOCNC(=S)N/N=C(\C)c1cnc2ccccc2n1
inactive: HOP-18 > 100 µM | DMS-114 15.6 µM | LXFL 529 30.8 µM | DLD-1 26.2 µM | SNB-78 > 100 µM | M19-MEL 15.8 µM | XF498 > 100 µM | KM-20L2 16.3 µM

O=C1c2ccccc2CCCCCCCCCCC12OCCCO2
inactive: HOP-18 47.9 µM | DMS-114 12.2 µM | LXFL 529 58.9 µM | DLD-1 60.4 µM | SNB-78 22.6 µM | M19-MEL 36.6 µM | KM-20L2 22.9 µM

CC#N.O[C@@H]1CCCC[C@@H]1O.O[C@@H]1CCCC[C@@H]1O.[TeH2]
inactive: HOP-18 27.5 µM | DMS-114 24.4 µM | LXFL 529 63.7 µM | DLD-1 22.7 µM | RXF 631 18.7 µM | SNB-78 > 100 µM | M19-MEL 25.1 µM | XF498 > 100 µM | KM-20L2 65.5 µM

CC(=O)C(CN(C)C)C(c1ccccc1)c1c(O)c2ccccc2oc1=O (stereo not given)
inactive: HOP-18 > 100 µM | DMS-114 93.3 µM | LXFL 529 > 100 µM | DLD-1 > 100 µM | SNB-78 > 100 µM | M19-MEL > 100 µM | XF498 > 100 µM | KM-20L2 > 100 µM

CC(C)Cc1ccc(C(C)C(=O)N2CCN(/C=C/c3ccccc3)CC2)cc1 (stereo not given)
inactive: HOP-18 21.5 µM | DMS-114 10.8 µM | DLD-1 13.7 µM | SNB-78 25.1 µM | M19-MEL 15.7 µM | XF498 13.8 µM | KM-20L2 15.5 µM

O=c1cc[nH]c2c1ccc1ncccc12
inactive: HOP-18 > 100 µM | DMS-114 > 100 µM | LXFL 529 > 100 µM | DLD-1 > 100 µM | RXF 631 > 100 µM | SNB-78 > 100 µM | M19-MEL > 100 µM | KM-20L2 > 100 µM

CCOC(=O)C1=C(NC)OCC1=O
inactive: DMS-114 > 100 µM | LXFL 529 > 100 µM | RXF 631 > 100 µM | SNB-78 > 100 µM | M19-MEL > 100 µM | XF498 > 100 µM | KM-20L2 > 100 µM

CN(C)CC1(Cc2ccccc2)CC/C(=C\c2ccccc2)C1=O (stereo not given)
inactive: HOP-18 > 100 µM | DMS-114 31.3 µM | LXFL 529 37.2 µM | DLD-1 27.6 µM | RXF 631 29.3 µM | SNB-78 52.2 µM | M19-MEL 26.8 µM | XF498 80.9 µM | KM-20L2 17.2 µM

CC(C)Cc1cccc(C(C)C)c1NC(=O)CCC(=O)N/N=C1\C(=N/NC(=O)CCC(=O)Nc2c(C(C)C)cccc2C(C)C)C(c2ccc3c(c2)OCO3)Oc2ccccc21 (stereo not given)
inactive: DMS-114 42.6 µM | LXFL 529 43.6 µM | DLD-1 40.8 µM | SNB-78 94 µM | M19-MEL > 100 µM | XF498 > 100 µM | KM-20L2 > 100 µM

CCOc1ccc(C2=C(Cl)c3cc(OC)c(OC)cc3C2Cl)cc1 (stereo not given)
inactive: HOP-18 42.8 µM | DMS-114 18.6 µM | LXFL 529 26.8 µM | DLD-1 37.6 µM | SNB-78 27.4 µM | M19-MEL 45.2 µM | XF498 19.6 µM | KM-20L2 38.8 µM

COC1(Cc2ccccc2)C(=O)c2ccccc2N1C(C)=O (stereo not given)
inactive: HOP-18 > 100 µM | DMS-114 > 100 µM | LXFL 529 > 100 µM | DLD-1 > 100 µM | RXF 631 > 100 µM | SNB-78 > 100 µM | M19-MEL > 100 µM | XF498 > 100 µM | KM-20L2 > 100 µM

CC12CCC(C(=O)N3CC=CCC3)(OC1=O)C2(C)C (stereo not given)
inactive: HOP-18 > 100 µM | DMS-114 > 100 µM | DLD-1 > 100 µM | SNB-78 > 100 µM | M19-MEL > 100 µM | XF498 > 100 µM | KM-20L2 > 100 µM

O=C(CC(=O)c1ccccc1)CC(O)(c1ccccc1)c1ccccc1
inactive: DMS-114 2.06 µM | LXFL 529 3.24 µM | DLD-1 4.18 µM | SNB-78 21 µM | M19-MEL 3.12 µM | KM-20L2 5.25 µM

CCOC(=O)/C=C/n1c2ccccc2c(=O)c2cc(OC)ccc21
inactive: HOP-18 > 100 µM | DMS-114 65.2 µM | LXFL 529 > 100 µM | DLD-1 69.7 µM | RXF 631 87.5 µM | M19-MEL > 100 µM | XF498 48.5 µM | KM-20L2 > 100 µM

Sc1nc(S)nc(Oc2ccc(Cl)c(Cl)c2)n1
inactive: HOP-18 36.4 µM | DMS-114 19.1 µM | LXFL 529 34.9 µM | DLD-1 27.1 µM | RXF 631 16.3 µM | SNB-78 34.4 µM | M19-MEL 22.8 µM | XF498 25.4 µM | KM-20L2 33.6 µM

CCCCCCCSCC1OC(n2cnc3c(N)ncnc32)C(O)C1O (stereo not given)
inactive: HOP-18 17.9 µM | DMS-114 18 µM | LXFL 529 12.3 µM | DLD-1 7.64 µM | SNB-78 > 100 µM | XF498 63.4 µM | KM-20L2 > 100 µM
